25 compounds from BindingDB's records for patent US11725000 (National Institute of Biological Sciences, Beijing, 2023) can be followed below.

In this experiment the target is T1, Succinate dehydrogenase [ubiquinone] iron-sulfur subunit, mitochondrial (Homo sapiens, UniProt P21912).
T1 sequence (P21912 whole entry): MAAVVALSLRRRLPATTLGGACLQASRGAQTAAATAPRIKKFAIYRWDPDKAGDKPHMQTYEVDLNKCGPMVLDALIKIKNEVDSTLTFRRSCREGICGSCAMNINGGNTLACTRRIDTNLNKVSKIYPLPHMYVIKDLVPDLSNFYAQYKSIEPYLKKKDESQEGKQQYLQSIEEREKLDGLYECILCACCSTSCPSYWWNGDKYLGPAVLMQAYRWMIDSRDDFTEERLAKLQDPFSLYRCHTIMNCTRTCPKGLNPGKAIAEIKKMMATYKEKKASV
Description: Apoptosis Inhibition Assay. An excerpt: In order to identify the target protein of tTC09 apoptosis inhibitors, we synthesized two sets of probes for target identification based on the SAR study. The first set of probes was designed for direct activity based protein profiling (ABPP) with biotin tag linked at different site. […] TC09 apoptosis inhibitors could stabilize the mitochondrial respiratory chain after Bim/tBid overexpression and help maintain the normal function of mitochondria. A second set of probes with a terminal alkyne group designed for click-reaction-assisted ABPP were also prepared.
As for `CS(=O)(=O)c1nc(-c2cccs2)cc(C(F)(F)F)n1` [US11725000, Compound 1], the EC50 fell in the range of 1000 to 10000 nM.
As for `CCCS(=O)(=O)c1nc(-c2cccs2)cc(C(F)(F)F)n1` [US11725000, Compound 4], the figure is 4210 nM; as for `CCC[S+]([O-])c1nc(-c2cccs2)cc(C(F)(F)F)n1` (stereo not given) [US11725000, Compound 5], 1170 nM; as for `[O-][S+](CC1CC1)c1nc(-c2cccs2)cc(C(F)(F)F)n1` (stereo not given) [US11725000, Compound 10], 2200 nM.
In the case of `O=S(=O)(Cc1ccccc1)c1nc(-c2cccs2)cc(C(F)(F)F)n1` [US11725000, Compound 11], the EC50 came to 6640 nM.
In the case of `[O-][S+](Cc1ccccc1)c1nc(-c2cccs2)cc(C(F)(F)F)n1` (stereo not given) [US11725000, Compound 12], the EC50 amounted to 3490 nM.
With `N#Cc1ccccc1CS(=O)(=O)c1nc(-c2cccs2)cc(C(F)(F)F)n1` [US11725000, Compound 13], the EC50 turned out to be 6350 nM.
As for `N#Cc1ccccc1C[S+]([O-])c1nc(-c2cccs2)cc(C(F)(F)F)n1` (stereo not given) [US11725000, Compound 14], the figure is 7030 nM; as for `N#Cc1cccc(C[S+]([O-])c2nc(-c3cccs3)cc(C(F)(F)F)n2)c1` (stereo not given) [US11725000, Compound 15], 3520 nM.
Take `O=S(=O)(Cc1cc(F)cc(F)c1)c1nc(-c2cccs2)cc(C(F)(F)F)n1` [US11725000, Compound 18]: the EC50 is 1160 nM.
`[O-][S+](Cc1cc(F)cc(F)c1)c1nc(-c2cccs2)cc(C(F)(F)F)n1` (stereo not given) [US11725000, Compound 19] yielded an EC50 of 1140 nM.
In turn, `[O-][S+](Cc1ccc(-c2ccccc2)cc1)c1nc(-c2cccs2)cc(C(F)(F)F)n1` (stereo not given) [US11725000, Compound 20] showed an EC50 of 257 nM.
Compound `O=S(=O)(Cc1ccc([N+]2([O-])CCOCC2)cc1)c1nc(-c2cccs2)cc(C(F)(F)F)n1` [US11725000, Compound 22] came in with a concentration for a half-maximal effect (EC50) of 1410 nM.
As to `O=S(=O)(Cc1ccc2c(ccc[n+]2[O-])c1)c1nc(-c2cccs2)cc(C(F)(F)F)n1` [US11725000, Compound 23], the EC50 was 57 nM.
As for `[O-][S+](Cc1ccc2ncccc2c1)c1nc(-c2cccs2)cc(C(F)(F)F)n1` (stereo not given) [US11725000, Compound 24], the figure is 110 nM; as for `O=C1CCCN1CC[S+]([O-])c1nc(-c2cccs2)cc(C(F)(F)F)n1` (stereo not given) [US11725000, Compound 25], 69 nM; as for `O=S(=O)(CCc1ccccc1)c1nc(-c2cccs2)cc(C(F)(F)F)n1` [US11725000, Compound 26], 94 nM.
As for `[O-][S+](CCc1ccccc1)c1nc(-c2cccs2)cc(C(F)(F)F)n1` (stereo not given) [US11725000, Compound 27], the figure is 13 nM; as for `O=C(O)CC[S+]([O-])c1nc(-c2cccs2)cc(C(F)(F)F)n1` (stereo not given) [US11725000, Compound 28], 499 nM; as for `CCOC(=O)CCS(=O)(=O)c1nc(-c2cccs2)cc(C(F)(F)F)n1` [US11725000, Compound 29], 104 nM.
For `CCOC(=O)CC[S+]([O-])c1nc(-c2cccs2)cc(C(F)(F)F)n1` (stereo not given) [US11725000, Compound 30], the EC50 is 4880 nM.
Regarding `COC(=O)CCC[S+]([O-])c1nc(-c2cccs2)cc(C(F)(F)F)n1` (stereo not given) [US11725000, Compound 32], the response was half-maximal at 64 nM (EC50).
With `C[S+]([O-])c1nc(Cl)cc(-c2cccs2)n1` (stereo not given) [US11725000, Compound 33], the EC50 is 4480 nM.
`Cc1cc(-c2cccs2)nc(S(C)(=O)=O)n1` [US11725000, Compound 34]: the EC50 worked out at 817 nM.
`C#Cc1cc(-c2cccs2)nc(S(C)(=O)=O)n1` [US11725000, Compound 35]: the EC50 was found to be 995 nM.

One may read the EC50 as the concentration needed to bring the measured effect to its halfway point. The low end stands for a more potent agent, the high end for a less potent agent.
